{"source": "patent US20220280572A1", "about": "“METHODS OF TREATING VASCULAR DISEASES” (Astellas Institute for Regenerative Medicine, priority 2019, published 2022)", "system": "lung microvasculature", "assay": "Micro CT scanning of lungs from the SuHx model", "format": "in vivo, rat", "conditions": "SuHx rats; sildenafil treatment", "description": "Endothelial progenitor cells are reported to preserve microvasculature in MCT treated lung (Zhao et al. Cir. Res. 96:442-450 (2005)). Therefore, micro CT scanning was performed on the lungs from the SuHx model treated with Nx control, vehicle, sildenafil, and 1 million and 5 million GMP1-HE cells.", "data": [{"smiles": "CCCc1nn(C)c2c(=O)[nH]c(-c3cc(S(=O)(=O)N4CCN(C)CC4)ccc3OCC)nc12", "note": "[sildenafil]", "values": [{"measurement": "capillary perfusion (microCT)", "value": "modest improvement"}]}]}
